Assay results from patent US4948880A, “Anthracycline derivatives having cytostatic activity” (Behringwerke Aktiengesellschaft, priority 1986, dated 1990).
Converted amounts (≈) assume the structure as drawn. Structures can show the parent of a compound that is named as a salt. Where two headings read alike, the source gives them in different places.

Test system: mouse L1210 leukemia cells
Experiment: Formation of L1210 leukemia cell colonies in soft agar (cytostatic activity)
Format: cell-based
Conditions: colonies > 60 μm, % of untreated control; for IC50: Mus musculus
Procedure: The cytostatic activity of the compounds according to the invention have been tested using mouse L1210 leukemia cells. Use was made for this by the formation of L1210 leukemia cell colonies in agar plates. This method is used to detect the effect of the test substances on the growth behavior of the cells over 1 hour or over several generations. In this connection, with a cell cycle time of 10-12 hours, about 14 consecutive generations are observed in a 7-day duration of the test. In this test, the substances having cytostatic activity according to the invention bring about a reduction, compared with an untreated control sample, in the number of colonies which is to be observed.
Procedure for Determining the Formation of L1210 Leukemia Cell Colonies in Soft Agar
500 leukemia cells per plate were incubated with various concentrations of the test substance at 37° C. for 1 hour. These cells were then washed twice with McCoy 5A medium, 0.3% agar was added, and finally the mixture was poured into Petri dishes. Controls were incubated only with fresh medium. In place of the incubation for one hour, in some cases various concentrations and test substances were mixed with the upper agar layer in order in this way to achieve continuous exposure of the cells throughout the incubation time. After the agar had solidified, the plates were incubated in an incubator at 37° C. for 7 days (5% by volume CO2, 95% relative atmospheric humidity). Thereafter the number of colonies with a diameter of more than 60 μm which had formed was counted. The results have been stated as the number of colonies in treated agar plates as a percentage of the untreated control. The dose-effect graph obtained in this way was used to determine the IC50 as a measure of the activity of the substance. The results for the compounds described here are compiled in Table 1 which follows, comparing with adriamycin.

[1] = L1210, 168 h, continuous exposure, test substance mixed with upper agar layer, 7 days, 37° C., read-out: Continuous incubation IC50
[2] = L1210, 1 hour incubation with test substance at 37° C., then washed, 7 days in agar, read-out: 1 h incubation IC50
[3] = L1210, 168 h, read-out: Continuous incubation IC50, continuous exposure, test substance mixed with upper agar layer, 7 days, 37° C.
[4] = L1210, read-out: 1 h incubation IC50, 1 hour incubation with test substance at 37° C., then washed, 7 days in agar

| Compound | IC50 [1] | IC50 [2] | IC50 [3] | IC50 [4] | 1 h incubation IC50 (1 hour incubation with test substance at 37° C., then washed, 7 days in agar, hydrochloride) |
| --- | --- | --- | --- | --- | --- |
| CN[C@H]1C[C@H](O[C@H]2C[C@](O)(C(C)O)Cc3c(O)c4c(c(O)c32)C(=O)c2c(OC)cccc2C4=O)O[C@@H](C)[C@H]1O (stereo partly shown) [compound 32, 3'-N-Methyl-13-dihydrodaunorubicin] | 0.5 mg/L (≈ 0.92 µM) | 1.3 mg/L (≈ 2.39 µM) | – | – | – |
| CC[C@@]1(O)C[C@H](O[C@H]2C[C@H](NC)[C@H](O)[C@H](C)O2)c2c(O)c3c(c(O)c2[C@H]1O[C@H]1C[C@H](NC)[C@H](O)[C@H](C)O1)C(=O)c1cccc(O)c1C3=O [compound 15, 7,10-O-bis-(3'-N-Methyl-α-L-daunosaminyl)-β-rhodomycinone] | > 1 mg/L | > 1 mg/L | – | – | – |
| CCN(C)[C@H]1C[C@H](O[C@H]2C[C@](O)(CC)[C@H](O)c3c(O)c4c(c(O)c32)C(=O)c2c(O)cccc2C4=O)O[C@@H](C)[C@H]1O [compound 11] | 0.007 mg/L (≈ 0.0126 µM) | 0.08 mg/L (≈ 0.143 µM) | – | – | – |
| CC[C@@]1(O)C[C@H](O[C@H]2C[C@H](N(C)Cc3ccccc3)[C@H](O)[C@H](C)O2)c2c(O)c3c(c(O)c2[C@H]1O[C@H]1C[C@H](N(C)Cc2ccccc2)[C@H](O)[C@H](C)O1)C(=O)c1cccc(O)c1C3=O [compound 28, 7,10-O-bis-(3'-N-Benzyl-3'-N-methyl-α-L-daunosaminyl)-β-rhodomycinone] | 0.0065 mg/L (≈ 0.00762 µM) | 0.12 mg/L (≈ 0.141 µM) | – | – | – |
| CCCCCN(C)[C@H]1C[C@H](O[C@H]2C[C@](O)(CC)[C@H](O[C@H]3C[C@H](N(C)CCCCC)[C@H](O)[C@H](C)O3)c3c(O)c4c(c(O)c32)C(=O)c2c(O)cccc2C4=O)O[C@@H](C)[C@H]1O [compound 29, 7,10-O-bis-(3'-N-Methyl-3'-N-pentyl-α-L-daunosaminyl)-β-rhodomycinone] | 0.1 mg/L (≈ 0.123 µM) | 0.6 mg/L (≈ 0.738 µM) | – | – | – |
| CC[C@@]1(O)C[C@H](O[C@H]2C[C@H](NC)[C@H](O)[C@H](C)O2)c2c(O)c3c(c(O)c2[C@H]1O)C(=O)c1cccc(O)c1C3=O [compound 1, 7-O-(3'-N-Methyl-α-L-daunosaminyl)-β-rhodomycinone] | – | – | 0.02 mg/L (≈ 0.0378 µM) | 0.038 mg/L (≈ 0.0718 µM) | – |
| CC[C@@]1(O)C[C@H](O[C@H]2C[C@H](NC)[C@H](O)[C@H](C)O2)c2c(O)c3c(c(O)c2[C@H]1O)C(=O)c1cccc(O)c1C3=O [compound 2, 7-O-(3'-N-Methyl-α-L-daunosaminyl)-β-rhodomycinone hydrochloride] | – | – | – | – | 0.026 mg/L |
| CC[C@@]1(O)C[C@H](O[C@H]2C[C@H](N(C)Cc3ccc(Br)cc3)[C@H](O)[C@H](C)O2)c2c(O)c3c(c(O)c2[C@H]1O)C(=O)c1cccc(O)c1C3=O [compound 23, 7-O-(3'-N-(4-Bromobenzyl)-3'-N-methyl-α-L-daunosaminyl)-β-rhodomycinone] | 0.08 mg/L (≈ 0.115 µM) | > 1 mg/L | – | – | – |
| CCCCCCCCN(C)[C@H]1C[C@H](O[C@H]2C[C@](O)(CC)[C@H](O)c3c(O)c4c(c(O)c32)C(=O)c2c(O)cccc2C4=O)O[C@@H](C)[C@H]1O [compound 21, 7-O-(3'-N-Octyl-3'-N-methyl-α-L-daunosaminyl)-β-rhodomycinone] | 0.46 mg/L (≈ 0.717 µM) | 2.8 mg/L (≈ 4.36 µM) | – | – | – |
| CC[C@@]1(O)C[C@H](O[C@H]2C[C@H](N(C)Cc3ccc(Cl)cc3)[C@H](O)[C@H](C)O2)c2c(O)c3c(c(O)c2[C@H]1O)C(=O)c1cccc(O)c1C3=O [compound 22, 7-O-(3'-N-(4-Chlorobenzyl)-3'-N-methyl-α-L-daunosaminyl)-β-rhodomycinone] | 0.026 mg/L (≈ 0.0397 µM) | 0.95 mg/L (≈ 1.45 µM) | – | – | – |
| CCCN(C)[C@H]1C[C@H](O[C@H]2C[C@](O)(CC)[C@H](O)c3c(O)c4c(c(O)c32)C(=O)c2c(O)cccc2C4=O)O[C@@H](C)[C@H]1O [compound 12, 7-O-(3'-N-Methyl-3'-N-propyl-α-L-daunosaminyl)-β-rhodomycinone] | 0.026 mg/L (≈ 0.0455 µM) | 0.1 mg/L (≈ 0.175 µM) | – | – | – |
| CC[C@@]1(O)C[C@H](O[C@H]2C[C@H](N(C)CC#N)[C@H](O)[C@H](C)O2)c2c(O)c3c(c(O)c2[C@H]1O)C(=O)c1c(O)ccc(O)c1C3=O [compound 8, 7-O-(3'-N-Cyanomethyl-3'-N-methyl-α-L-daunosaminyl)-β-isorhodomycinone] | – | – | 0.042 mg/L (≈ 0.0718 µM) | 0.2 mg/L (≈ 0.342 µM) | – |
| CCCCCCCN(C)[C@H]1C[C@H](O[C@H]2C[C@](O)(CC)[C@H](O)c3c(O)c4c(c(O)c32)C(=O)c2c(O)cccc2C4=O)O[C@@H](C)[C@H]1O [compound 20, 7-O-(3'-N-Heptyl-3'-N-methyl-α-L-daunosaminyl)-β-rhodomycinone] | 0.38 mg/L (≈ 0.605 µM) | 1.9 mg/L (≈ 3.03 µM) | – | – | – |
| CC[C@@]1(O)C[C@H](O[C@H]2C[C@H](N(C)Cc3ccc(C#N)cc3)[C@H](O)[C@H](C)O2)c2c(O)c3c(c(O)c2[C@H]1O)C(=O)c1cccc(O)c1C3=O [compound 25, 7-O-(3'-N-(4-Cyanobenzyl)-3'-N-methyl-α-L-daunosaminyl)-β-rhodomycinone] | – | – | 0.11 mg/L (≈ 0.171 µM) | > 1 mg/L | – |
| CC[C@@]1(O)C[C@H](O[C@H]2C[C@H](N(C)CC#N)[C@H](O)[C@H](C)O2)c2c(O)c3c(c(O)c2[C@H]1O)C(=O)c1cccc(O)c1C3=O [compound 7, 7-O-(3'-N-Cyanomethyl-3'-N-methyl-α-L-daunosaminyl)-β-rhodomycinone] | – | – | 0.013 mg/L (≈ 0.0229 µM) | 0.021 mg/L (≈ 0.0369 µM) | – |
| CC[C@@]1(O)C[C@H](O[C@H]2C[C@H](N(C)Cc3ccc([N+](=O)[O-])cc3)[C@H](O)[C@H](C)O2)c2c(O)c3c(c(O)c2[C@H]1O)C(=O)c1cccc(O)c1C3=O [compound 24, 7-O-(3'-N-(4-Nitrobenzyl)-3'-N-methyl-α-L-daunosaminyl)-β-rhodomycinone] | – | – | 0.16 mg/L (≈ 0.241 µM) | 2.5 mg/L (≈ 3.76 µM) | – |
| CCCCCN(C)[C@H]1C[C@H](O[C@H]2C[C@](O)(CC)[C@H](O)c3c(O)c4c(c(O)c32)C(=O)c2c(O)cccc2C4=O)O[C@@H](C)[C@H]1O [compound 18, 7-O-(3'-N-Methyl-3'-N-pentyl-α-L-daunosaminyl)-β-rhodomycinone] | 0.075 mg/L (≈ 0.125 µM) | 0.48 mg/L (≈ 0.8 µM) | – | – | – |
| CCCCCN(C)[C@H]1C[C@H](O[C@H]2C[C@](O)(CC)[C@H](O)c3c(O)c4c(c(O)c32)C(=O)c2c(O)ccc(O)c2C4=O)O[C@@H](C)[C@H]1O [compound 27, 7-O-(3'-N-Methyl-3'-N-pentyl-α-L-daunosaminyl)-β-isorhodomycinone] | 0.06 mg/L (≈ 0.0975 µM) | > 1 mg/L | – | – | – |
| CCCCCCN(C)[C@H]1C[C@H](O[C@H]2C[C@](O)(CC)[C@H](O)c3c(O)c4c(c(O)c32)C(=O)c2c(O)cccc2C4=O)O[C@@H](C)[C@H]1O [compound 19, 7-O-(3'-N-Hexyl-3'-N-methyl-α-L-daunosaminyl)-β-rhodomycinone] | 0.13 mg/L (≈ 0.212 µM) | 1.2 mg/L (≈ 1.96 µM) | – | – | – |
| CC[C@@]1(O)C[C@H](O[C@H]2C[C@H](N(C)Cc3ccccc3)[C@H](O)[C@H](C)O2)c2c(O)c3c(c(O)c2[C@H]1O)C(=O)c1cccc(O)c1C3=O [compound 9, 7-O-(3'-N-Benzyl-3'-N-methyl-α-L-daunosaminyl)-β-rhodomycinone] | 0.028 mg/L (≈ 0.0452 µM) | 0.32 mg/L (≈ 0.516 µM) | – | – | – |
| CC[C@@]1(O)C[C@H](O[C@H]2C[C@H](N(C)C(C)=O)[C@H](O)[C@H](C)O2)c2c(O)c3c(c(O)c2[C@H]1C(=O)OC)C(=O)c1c(O)ccc(O)c1C3=O [compound 14, 7-O-(3'-N-Acetyl-3'-N-methyl-α-L-daunosaminyl)-ε-isorhodomycinone] | 0.5 mg/L (≈ 0.794 µM) | > 1 mg/L | – | – | – |
| CC[C@@]1(O)C[C@H](O[C@H]2C[C@H](N(C)C=O)[C@H](O)[C@H](C)O2)c2c(O)c3c(c(O)c2[C@H]1O)C(=O)c1cccc(O)c1C3=O [compound 6, 7-O-(3'-N-Formyl-3'-N-methyl-α-L-daunosaminyl)-β-rhodomycinone] | – | – | 0.044 mg/L (≈ 0.0789 µM) | 0.15 mg/L (≈ 0.269 µM) | – |
| CCCCN(C)[C@H]1C[C@H](O[C@H]2C[C@](O)(CC)[C@H](O)c3c(O)c4c(c(O)c32)C(=O)c2c(O)cccc2C4=O)O[C@@H](C)[C@H]1O [compound 13, 7-O-(3'-N-Butyl-3'-N-methyl-α-L-daunosaminyl)-β-rhodomycinone] | 0.018 mg/L (≈ 0.0307 µM) | 0.125 mg/L (≈ 0.213 µM) | – | – | – |
| CC[C@@]1(O)C[C@H](O[C@H]2C[C@H](NC)[C@H](O)[C@H](C)O2)c2c(O)c3c(c(O)c2[C@H]1C(=O)OC)C(=O)c1c(O)ccc(O)c1C3=O [compound 5, 7-O-(3'-N-Methyl-α-L-daunosaminyl)-ε-isorhodomycinone] | 0.28 mg/L (≈ 0.477 µM) | > 1 mg/L | – | – | – |
| CC[C@@]1(O)C[C@H](O[C@H]2C[C@H](NC)[C@H](O)[C@H](C)O2)c2c(O)c3c(c(O)c2[C@H]1O)C(=O)c1c(O)ccc(O)c1C3=O [compound 3, 7-O-(3'-N-Methyl-α-L-daunosaminyl)-β-isorhodomycinone] | 0.11 mg/L (≈ 0.202 µM) | 0.13 mg/L (≈ 0.238 µM) | – | – | – |
